Reference: US20130244875A1, “METHODS AND COMPOSITIONS FOR IMPROVING PLANT HEALTH” (priority 2006, published 2013)

What was measured:
[1] = system: Xanthomonas campestris pv. malvacearum; assay: Bacterial blight inoculation of cotton plants after DCSA spray; assay type: in vivo; conditions: two-week old cotton; DCSA spray 24 hours before tooth pick inoculation; unsprayed plants developed necrotic spots
Protocol: In this example, two-week old cotton plants were sprayed with DCSA while control plants received spray application of water only. The plants were inoculated with bacterial blight pathogen (Xanthomonas campestris pv. malvacearum) about 24 hours after the DCSA spray application using a tooth pick inoculation method. As shown in the FIG. 4, the cotton plants inoculated with the bacterial pathogen but not sprayed with DCSA developed necrotic spots, typical symptoms of bacterial blight. […] The results of this experiment indicate that DCSA application reduced bacterial infection on cotton plants when inoculated with bacterial pathogen 24 hours after the DCSA spray.

[2] = system: Verticillium (isolate DPL); assay: Verticillium wilt protection in cotton, isolate DPL; assay type: in vivo, Verticillium dahliae; conditions: cotton ST6611, DCSA 1 lb/A, glyphosate 0.75 lb/A, 24 hours before inoculation
Text: DCSA was unexpectedly found to provide protection to cotton plants against Verticillium dahliae, causal agent of cotton wilt disease (Table 6). Cotton plants of the variety ST6611, BOLLGARD 2, ROUNDUP READY FLEX, were inoculated with a moderate isolate (DPL) or a virulent isolate (King) of Verticillium by a seedling dipping method. Seedlings at the first true leaf stage were taken out from the pots, one inch of roots were cut off, seedlings were dipped in a spore slurry for one minute, and then transplanted back in the pots. These strains were isolated and provided by Dr. Terry Wheeler (Texas A&M University, TX USA). DCSA was applied at the rate of 1 lb/A and glyphosate (ROUNDUP WEATHERMAX, Monsanto Company, St. Louis, Mo.) at the rate of 0.75 lb/A 24 hours before inoculation. Protection against Verticillium was measured on a disease severity scale of 1-9:1 being healthy and 9 being dead because of disease, and also was measured as the number of plants that survived out of 10 inoculated plants.

soybean seeds = assay: Soybean seed germination in DCSA solution; assay type: in vivo; parameters: key: 1—low; 2—moderate; 3—high; 3+—exceptionally high; conditions: N=8
Protocol: Rapid seed germination is an important agronomic trait that reduces crop losses due to seed rot especially under cool wet conditions. Soybeans seeds of three varieties were germinated in a solution of 1, 10, or 100 μM DCSA or water at normal temperature (22° C.) or cool temperature (15° C.) and rated for seed germination at 1DAT (1 day after treatment) and 2DAT (2 days after treatment) at 22° C. or 4DAT (days after treatment) at 15° C. The germination rate was scored as 1—low, 2—moderate, 3—high for each treatment, 3+—exceptionally high, N=8.

soybean plants [3] = assay: Copper injury on soybeans; assay type: in vivo; conditions: DCSA 0.5 lb/A as tank mix or pretreatment 1 hr or 24 hr before 1000 ppm copper; reduced from 45%
Text: Plants are sensitive to heavy metal toxicity. Heavy metals are present in the environment or sometimes applied to plants for pest control. Symptoms of plant injury following treatment with a heavy metal compound, for example, a compound containing copper, are necrotic leaf spotting and flecking with more severe injury resulting in larger reddish brown spots, […] necrosis and/or necrotic puckered leaves.

PR5 = assay: Induction of PR5 (northern blot) by dicamba or DCSA; assay type: in vivo, soybean; conditions: probe specific to PR5; procedures as for PR2
soybean plants [4] = assay: AMPA induced yellow flash in soybean; assay type: in vivo; conditions: 8DAT, scale 1-3, surfactant alone 2.7
Protocol: Yellow flash is a symptom sometimes observed in glyphosate tolerant soybeans treated with glyphosate due to the formation of AMPA (aminomethyl phosphonic acid). A study was conducted to determine if DCSA treatment would protect soybean plants from AMPA induced yellow flash symptoms. Soybean plants were grown to V1-2 growth stage and divided into 3 treatment groups, 3 pots of plants per treatment. The treatments were 0.5 lb/A DCSA, 1.0 lb/A DCSA or surfactant alone. One day after treatment, all of the plants were sprayed with 1 lb/A of AMPA (Sigma Aldrich, St. Louis, Mo.) in surfactant. […] In an aspect of the present invention, a tolerance to yellow flash is provided due to improved plant health by DCSA applied to a plant in need of yellow flash tolerance or DCSA produced in vivo by the action of DMO on dicamba in transgenic plants comprising a DMO transgene.

Pythium ultimum = Pythium ultimum inoculation of cotton seedlings after spray; assay type: in vivo; conditions: same conditions kill plants not contacted with 3,6-DCSA
Protocol: Ten-day old Roundup Ready® Flex Cotton (Event MON 88913; U.S. Publ. 20060059590) seedlings were sprayed with a mixture of Roundup Weather Max® (Monsanto Company, St. Louis, Mo.) and 3,6-DCSA (BASF). The control plants were sprayed with water only. The cotton seedlings from both treatments were inoculated with Pythium ultimum by dipping seedling into inoculum slurry, 24 hours after the spray application. The positive control plants were neither sprayed nor inoculated with P. ultimum. […] Cotton plants treated with Roundup® and DCSA were as healthy as were the plants not inoculated with P. ultimum.

[5] = system: wheat seed (spring wheat variety); assay: Wheat seed germination in DCSA solution; assay type: in vivo; parameters: key: 1—low; 2—moderate; 3—high; 3+—exceptionally high; conditions: 22° C., 2DAT, water 1
Protocol: Wheat seed (spring wheat variety) was germinated in a solution of 0.1, 1, 10, 100, or 1000 μM DCSA or water at 22° C. and rated 2 DAT for germination using the same rating scale as used for soybean.

Q: With O=C(O)c1c(Cl)ccc(Cl)c1O [DCSA, 3,6-dichloro salicylic acid] as the molecule, how does the bacterial blight symptoms [1] read?
A: Its bacterial blight symptoms is “only localized lesions (HR response) and no increase in bacterial blight symptoms”.

Q: And the “Severity rating (1-9)” value ([2]; 1 healthy, 9 dead, inoculated check 5)?
A: Its value is 1.

Q: What about the “Plant survival rating (out of 10)” value ([2]; inoculated check 8) of the same molecule?
A: Its value is 10.

Q: What about the germination rating (soybean seeds; soybean Variety 1, 1 μM DCSA, 1DAT, 22° C.) of the same molecule?
A: The germination rating was 1.

Q: And the germination rating (soybean seeds; soybean Variety 1, 1 μM DCSA, 2DAT, 22° C.)?
A: Its germination rating is 3.

Q: What about the germination rating (soybean seeds; soybean Variety 1, 1 μM DCSA, 4 DAT, 15° C.) of the same molecule?
A: Its germination rating is 1.

Q: What about the germination rating (soybean seeds; soybean Variety 1, 10 μM DCSA, 1DAT, 22° C.) of the same molecule?
A: The germination rating was 1.

Q: And the germination rating (soybean seeds; soybean Variety 1, 10 μM DCSA, 2DAT, 22° C.)?
A: The germination rating was 3.

Q: What about the germination rating (soybean seeds; soybean Variety 1, 10 μM DCSA, 4 DAT, 15° C.) of the same molecule?
A: The germination rating was 3.

Q: What about the germination rating (soybean seeds; soybean Variety 1, 100 μM DCSA, 1DAT, 22° C.) of the same molecule?
A: Its germination rating is 3.

Q: And the germination rating (soybean seeds; soybean Variety 1, 100 μM DCSA, 2DAT, 22° C.)?
A: Its germination rating is 3+.

Q: What about the germination rating (soybean seeds; soybean Variety 1, 100 μM DCSA, 4 DAT, 15° C.) of the same molecule?
A: Its germination rating is 3.

Q: And the germination rating (soybean seeds; soybean Variety 2, 1 μM DCSA, 1DAT, 22° C.)?
A: The germination rating was 2.

Q: What about the germination rating (soybean seeds; soybean Variety 2, 1 μM DCSA, 2DAT, 22° C.) of the same molecule?
A: The germination rating was 3.

Q: And the germination rating (soybean seeds; soybean Variety 2, 1 μM DCSA, 4 DAT, 15° C.)?
A: The germination rating was 3.

Q: What about the germination rating (soybean seeds; soybean Variety 2, 10 μM DCSA, 1DAT, 22° C.) of the same molecule?
A: Its germination rating is 2.

Q: What about the germination rating (soybean seeds; soybean Variety 2, 10 μM DCSA, 2DAT, 22° C.) of the same molecule?
A: The germination rating was 3.

Q: And the germination rating (soybean seeds; soybean Variety 2, 10 μM DCSA, 4 DAT, 15° C.)?
A: Its germination rating is 3.

Q: And the germination rating (soybean seeds; soybean Variety 2, 100 μM DCSA, 1DAT, 22° C.)?
A: Its germination rating is 3.

Q: What about the germination rating (soybean seeds; soybean Variety 2, 100 μM DCSA, 2DAT, 22° C.) of the same molecule?
A: The germination rating was 3+.

Q: What about the germination rating (soybean seeds; soybean Variety 2, 100 μM DCSA, 4 DAT, 15° C.) of the same molecule?
A: The germination rating was 3.

Q: What about the germination rating (soybean seeds; soybean Variety 3, 1 μM DCSA, 1DAT, 22° C.) of the same molecule?
A: The germination rating was 2.

Q: And the germination rating (soybean seeds; soybean Variety 3, 1 μM DCSA, 2DAT, 22° C.)?
A: Its germination rating is 2.

Q: And the germination rating (soybean seeds; soybean Variety 3, 1 μM DCSA, 4 DAT, 15° C.)?
A: The germination rating was 3.

Q: And the germination rating (soybean seeds; soybean Variety 3, 10 μM DCSA, 1DAT, 22° C.)?
A: Its germination rating is 2.

Q: And the germination rating (soybean seeds; soybean Variety 3, 10 μM DCSA, 2DAT, 22° C.)?
A: Its germination rating is 3.

Q: What about the germination rating (soybean seeds; soybean Variety 3, 10 μM DCSA, 4 DAT, 15° C.) of the same molecule?
A: Its germination rating is 2.

Q: What about the germination rating (soybean seeds; soybean Variety 3, 100 μM DCSA, 1DAT, 22° C.) of the same molecule?
A: The germination rating was 1.

Q: And the germination rating (soybean seeds; soybean Variety 3, 100 μM DCSA, 2DAT, 22° C.)?
A: The germination rating was 3.

Q: What about the germination rating (soybean seeds; soybean Variety 3, 100 μM DCSA, 4 DAT, 15° C.) of the same molecule?
A: The germination rating was 1.

Q: What about the Soybean injury levels (soybean plants [3]) of the same molecule?
A: Its Soybean injury levels is 24-33%.

Q: What about the “induction of PR5” value (PR5) of the same molecule?
A: Its value is “Induction of PR5”.

Q: What about the Average symptoms (soybean plants [4]; 0.5 lb/A DCSA one day before 1 lb/A AMPA) of the same molecule?
A: Its Average symptoms is 3.

Q: What about the Average symptoms (soybean plants [4]; 1.0 lb/A DCSA one day before 1 lb/A AMPA) of the same molecule?
A: The Average symptoms was 1.7.

Q: And the “survival of cotton plants after inoculation with Pythium ultimum” value (Pythium ultimum)?
A: The value was “survive inoculation”.

Q: What about the germination rating ([5]; 0.1 μM DCSA) of the same molecule?
A: Its germination rating is 1.

Q: And the germination rating ([5]; 1 μM DCSA)?
A: The germination rating was 1.

Q: And the germination rating ([5]; 10 μM DCSA)?
A: The germination rating was 3.

Q: What about the germination rating ([5]; 100 μM DCSA) of the same molecule?
A: The germination rating was 2.

Q: And the germination rating ([5]; 1000 μM DCSA)?
A: Its germination rating is 3.
